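Following 48 hours of exposure in 96-well plates, responses at five concentrations were used to interpolate endpoints linearly. GI50 = concentration required for 50% inhibition of growth. TGI: total growth inhibition.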
Experiments:
Assay in all cases: inhibition of tumour cell growth, NCI panel, 48 h
[1] = test system: SK-MEL-28 melanoma
[2] = test system: DU-145 prostate
[3] = test system: MCF7 breast
[4] = test system: MDA-MB-231 breast
[5] = test system: LXFL 529 NSCLC
[6] = test system: KM20L2 colon
[7] = test system: DMS 273 small cell lung
[8] = test system: XF 498 CNS
[9] = test system: DLD-1 colon

## Cc1ccc(C)c(NC(=O)C(=O)C(c2cnc3ccc([N+](=O)[O-])cc3n2)[N+](=O)[O-])c1 (configuration not stated)
[1]
  TGI: > 100 µM
[2]
  TGI: > 100 µM
[3]
  TGI: > 100 µM

## CCNC(=O)C[C@@H]1N=C(c2ccc(Cl)cc2)c2cc(OC)ccc2-n2c(C)nnc21
[4]
  GI50: 2.76 µM
  TGI: > 100 µM
[1]
  GI50: 11.2 µM
  TGI: > 100 µM
[2]
  GI50: > 100 µM
  TGI: > 100 µM
[3]
  GI50: 0.532 µM
  TGI: > 100 µM

## C=C1C(=O)O[C@@H]2C[C@@H]1CC[C@]1(C)O[C@H]1CC[C@@]1(C)O[C@@H]1CC[C@@]2(C)O
[4]
  GI50: 25.1 µM
  TGI: 68.4 µM
[1]
  GI50: 17.5 µM
  TGI: 43.1 µM
[2]
  GI50: 35 µM
  TGI: > 100 µM
[3]
  GI50: 99.8 µM
  TGI: > 100 µM

## CN/N=C(/Cc1occc(=O)c1O)C(=O)Nc1ccc(C)c(C)c1
[1]
  TGI: > 100 µM
[5]
  TGI: > 100 µM
[6]
  TGI: > 100 µM

## CC(C)C(C(=O)O)N(CC1(O)OCC(O)C(O)C1O)N=O (configuration not stated)
[1]
  TGI: > 100 µM
[5]
  TGI: > 100 µM
[7]
  TGI: > 100 µM
[6]
  TGI: > 100 µM
[8]
  TGI: > 100 µM
[9]
  TGI: > 100 µM

## OCCN(CCO)N=Nc1ccc(-c2nc3ccccc3[nH]2)cc1
[4]
  GI50: 31.3 µM
  TGI: 97.8 µM
[1]
  GI50: 15.8 µM
  TGI: 29.5 µM
[2]
  GI50: 20.9 µM
  TGI: 46.6 µM

## O=C1c2ccccc2-c2c1c1ccccc1c(=O)n2CCCNCCCn1c2c(c3ccccc3c1=O)C(=O)c1ccccc1-2
[4]
  GI50: 1.09 µM
  TGI: 4.25 µM
[1]
  GI50: 11 µM
  TGI: > 36.9 µM
[2]
  GI50: 1.49 µM
  TGI: 5.85 µM
[3]
  GI50: 1.33 µM
  TGI: > 10.5 µM

## CC1=C(C)C(=O)c2c(c(C(=O)c3ccccc3)c3nc4ccccc4n3c2C)C1=O
[4]
  GI50: 17.7 µM
  TGI: 46 µM
[1]
  GI50: > 100 µM
  TGI: > 100 µM
[2]
  GI50: 63.5 µM
  TGI: > 100 µM
[3]
  GI50: 70.1 µM
  TGI: > 100 µM

## Cc1ccc(Nc2nc(NCCO)c3ccccc3n2)cc1C
[4]
  GI50: 4.22 µM
  TGI: 16.1 µM
[1]
  GI50: 6.47 µM
  TGI: 20.1 µM
[2]
  GI50: 10.3 µM
  TGI: 22 µM
[3]
  GI50: 1.66 µM
  TGI: 16.9 µM

## O=C(Nc1ccc(-c2nc3cc4ccccc4cc3[nH]2)cc1)c1cccc(Br)c1
[4]
  GI50: 3.11 µM
  TGI: 19.3 µM
[1]
  GI50: 4.33 µM
  TGI: 16.8 µM
[2]
  GI50: 3.03 µM
  TGI: 19.1 µM
[3]
  GI50: 1.97 µM
  TGI: 10.4 µM

## Oc1cccc2c1NC1=C(CCC/C1=C\c1ccccc1)C2
[1]
  TGI: > 100 µM
[5]
  TGI: > 100 µM
[7]
  TGI: > 100 µM
[6]
  TGI: > 100 µM
[8]
  TGI: > 100 µM

## O=[N+]([O-])c1ccc(N2CCN(Cc3ccccc3)CC2)c2c1no[n+]2[O-]
[4]
  GI50: 1.56 µM
  TGI: 3.08 µM
[1]
  GI50: 3.56 µM
  TGI: 9.07 µM
[2]
  GI50: 1.57 µM
  TGI: 2.98 µM
[3]
  GI50: 0.803 µM
  TGI: 2.44 µM

## CC(Cn1c2c3ccccc3ccc2c2oc(=O)c3ccccc3c21)N(C)C (configuration not stated)
[1]
  TGI: > 100 µM
[5]
  TGI: > 100 µM
[6]
  TGI: > 100 µM
[8]
  TGI: > 100 µM
[9]
  TGI: > 100 µM

## CN(C)c1ccc(-c2cc(=O)c3ccccc3[nH]2)cc1
[1]
  TGI: > 100 µM
[5]
  TGI: > 100 µM
[7]
  TGI: > 100 µM
[6]
  TGI: > 100 µM
[9]
  TGI: > 100 µM

## CC(C)(C)[Si](C)(C)OCC1CCC(n2cnc3c(NC(=O)c4ccccc4)ncnc32)O1 (configuration not stated)
[4]
  TGI: 37.1 µM
[1]
  TGI: 27.9 µM
[2]
  TGI: 37 µM
[3]
  TGI: 45.1 µM

## CN1CCN(Cc2ccc(-c3cc4ncnc(Nc5ccc(OCc6cccc(F)c6)c(Cl)c5)c4s3)o2)CC1
[4]
  GI50: 4.56 µM
  TGI: 9.01 µM
[1]
  GI50: 4.08 µM
  TGI: 7.61 µM
[2]
  GI50: 4.03 µM
  TGI: 7.47 µM
[3]
  GI50: 3.86 µM
  TGI: 7.81 µM

## CCN1C(=O)C/C(=C\C(C)=O)Nc2ccccc21
[4]
  GI50: > 100 µM
  TGI: > 100 µM
[1]
  TGI: > 100 µM
[2]
  GI50: > 100 µM
  TGI: > 100 µM
[5]
  TGI: > 100 µM
[7]
  TGI: > 100 µM
[8]
  TGI: > 100 µM
[9]
  TGI: 44.7 µM
[3]
  GI50: > 100 µM
  TGI: > 100 µM

## CNc1ccccc1C(=O)N/N=C/C=C/c1ccccc1
[4]
  GI50: 4.11 µM
  TGI: 62 µM
[1]
  GI50: 6.88 µM
  TGI: > 100 µM
[2]
  GI50: 3.47 µM
  TGI: > 57.6 µM
[3]
  GI50: 0.49 µM
  TGI: > 100 µM

## CC/C=C\C[C@H](O)C/C=C1/C(=O)C=C[C@@H]1C/C=C\CCCC(=O)NC(C)C
[4]
  GI50: 4.72 µM
  TGI: 16.7 µM
[1]
  GI50: 2.14 µM
  TGI: 4.98 µM
[2]
  GI50: 3.22 µM
  TGI: 13.5 µM
[3]
  GI50: 2.18 µM
  TGI: 13.9 µM

## CCn1c(=O)c(-c2ccn[nH]2)cc2c(C)nc(N)nc21
[4]
  GI50: 1.45 µM
  TGI: 12 µM
[1]
  GI50: 0.97 µM
  TGI: 6.13 µM
[2]
  GI50: 2.34 µM
  TGI: > 100 µM
[3]
  GI50: 0.389 µM
  TGI: > 100 µM

## C=C1C(=O)O[C@H]2[C@H]1CC/C(COC(=O)C(=O)c1c[nH]c3ccccc13)=C\CC[C@@]1(C)O[C@@H]21
[4]
  GI50: 2.46 µM
  TGI: 5.5 µM
[1]
  GI50: 2.02 µM
  TGI: 4.23 µM
[2]
  GI50: 3.12 µM
  TGI: 11.8 µM
[3]
  GI50: 2.16 µM
  TGI: 8.83 µM

## Cn1ccnc1C(=O)/C=C/c1ccc(CC(=O)Nc2ccc(Cl)cc2)cc1
[4]
  GI50: 5.23 µM
  TGI: > 25 µM
[1]
  GI50: > 25 µM
  TGI: > 25 µM
[2]
  GI50: 1.42 µM
  TGI: > 25 µM
[3]
  GI50: 0.891 µM
  TGI: > 25 µM

## COc1cccc(-c2nn(-c3ccccc3)cc2-c2ccnc(NCCNS(=O)(=O)c3ccc(Cl)cc3)c2)c1
[4]
  GI50: 3.55 µM
  TGI: > 100 µM
[1]
  GI50: 7.99 µM
  TGI: > 100 µM
[2]
  GI50: 7.55 µM
  TGI: > 100 µM
[3]
  GI50: 2.98 µM
  TGI: 18.4 µM

## CCNc1nnc(CSc2nc(-c3ccccc3)c(-c3ccccc3)[nH]2)s1
[1]
  TGI: 36.1 µM
[5]
  TGI: 64.8 µM
[7]
  TGI: 42.9 µM
[6]
  TGI: 46.1 µM
[9]
  TGI: 52.7 µM

## CC(O)C1OC(O)C2OC(C)(C)OC12 (configuration not stated)
[4]
  TGI: > 100 µM
[1]
  TGI: > 100 µM
[2]
  TGI: > 100 µM
[3]
  TGI: > 100 µM

## O=C(O)c1ccc(NC(=O)C2C(=O)C(=O)N(c3ccc(C(=O)O)cc3)C2=O)cc1 (configuration not stated)
[1]
  TGI: > 100 µM
[7]
  TGI: > 100 µM
[6]
  TGI: > 100 µM
[8]
  TGI: > 100 µM
[9]
  TGI: > 100 µM

## Cc1ccc(NC(c2ccccc2)c2ccc3cccnc3c2O)cc1 (configuration not stated)
[4]
  TGI: 13.5 µM
[1]
  TGI: 33.3 µM
[2]
  TGI: 23.4 µM
[3]
  TGI: 16.2 µM

## Nc1ccccc1C#CC#Cc1ccccc1N
[4]
  GI50: 10.9 µM
  TGI: 24.5 µM
[1]
  GI50: 48 µM
  TGI: > 100 µM
